The values that follow come from US6787530B1, “Use of pregnane-diones as analgesic agents” (priority 1996, dated 2004).

The subject of test [1] is Wistar rat. Briefly: Electrical current threshold for pain (ECT) in the tail after intragastric dosing, pilot experiment. Type of test: in vivo. Conditions: 150 mg suspended in 1% Cremophor EL, 99% saline, intragastrically; one rat approx. 200 g. As for the experimental part: We performed a pilot experiment on one drug naive nale Wistar rat that weighed approximately 200 g. We measured the nociceptive (pain) threshold in the tail using electrical current as the noxious stimulus. We measured the electrical current threshold for pain (ECT) in the tail every five minutes until the readings stabilised. We then gave 150 mg alphadolone acetate suspended in 1% Cremophor EL, 99% saline, intragastrically.

The subject of test [2] is spinal cord GABAA receptors. Type of test: in vivo, rat. An excerpt: Groups of 10 rats were examined for the duration of the loss of righting reflex and loss of coordination in the rotarod test and also for antinociceptive effects in the electrical current threshold test measured in the tail. […] Thus we were able to compare the duration of sedation and anaesthesia and quantity of antinociception following intraperitoneal administration of the neurosteroid mixture and also following the components of the mixture at the doses which were given when the combination was used.
Rats were given a range of doses of alphadolone from 0.1 to 100 mg/kg intraperitoneally. The antinociceptive effect was measured using electrical current in the tail.

In the case of `CC(=O)OCC(=O)[C@H]1CC[C@H]2[C@@H]3CC[C@H]4C[C@H](O)CC[C@]4(C)[C@H]3C(=O)C[C@]12C` [alphadolone, 21-acetoxy-3alpha-hydroxy-5alpha-pregnane-11,20-dione], the “electrical current threshold for pain (ECT) in the tail” value in test [1] is reported as “significant rise in tail pain thresholds”. Further, in test [2] (0.1 to 100 mg/kg intraperitoneally, rats), the “dose response of antinociceptive effect (electrical current in the tail)” value is listed as “dose-related increase in antinociceptive effect”. Further, in test [2] (ip, Saffan 2 ml/kg, alphaxalone 18 mg/kg, alphadolone 6 mg/kg, groups of 10 rats), the “antinociceptive effects in the electrical current threshold test measured in the tail” value is “all of the antinociceptive effects of the Saffan mixture could be achieved with alphadolone alone”.
